Reference: US20180251434A1, “ANTIBACTERIAL HETEROCYCLIC DERIVATIVES” (priority 2015, published 2018)
In brackets after ≈: the same amount, converted by molar mass. Where two headings read alike, the source gives them in different places.

Legend:
Type in all cases: cell-based
P. aeruginosa ATCC27853 = test: Bacterial growth minimal inhibitory concentration (broth microdilution, CLSI M7-A7); details: quinolone-sensitive strain; for MIC: Pseudomonas aeruginosa, ATCC27853, cation-adjusted Mueller Hinton Broth; for MIC for P. aeruginosa ATCC27853: cation-adjusted Mueller Hinton Broth
Procedure: (§1) Minimal Inhibitory Concentrations (MICs; mg/L) were determined in cation-adjusted MuellerHinton Broth by a microdilution method following the description given in “Methods for Dilution Antimicrobial Susceptibility Tests for Bacteria that grow Aerobically”, Approved standard, 7th ed., Clinical and Laboratory Standards Institute (CLSI) Document M7-A7, Wayne, Pa., USA (2006).
(§2) All Example compounds were tested against several Gram-positive and Gram-negative bacteria. […] K pneumoniae A-651 is a multiply-resistant strain (in particular quinolone-resistant), while E. coli ATCC25922 and P. aeruginosa ATCC27853 are quinolone-sensitive strains.

K. Pneumoniae A-651 = test: as above; details: cation-adjusted Mueller Hinton Broth, multiply-resistant (quinolone-resistant) strain; for MIC: Klebsiella pneumoniae
Procedure: as §1, §2

E. coli ATCC25922 = test: as above; details: quinolone-sensitive strain; for MIC: Escherichia coli, ATCC25922, cation-adjusted Mueller Hinton Broth; for MIC for E. coli ATCC25922: cation-adjusted Mueller Hinton Broth
Procedure: as §1, §2

wild-type E. coli A-1261 = test: MIC with or without alkaline phosphatase or esterase (prodrug activation); details: Escherichia coli
Procedure: Minimal Inhibitory Concentrations (MICs; mg/L) were determined in cation-adjusted MuellerHinton Broth by a microdilution method following the description given in “Methods for Dilution Antimicrobial Susceptibility Tests for Bacteria that grow Aerobically”, Approved standard, 7th ed., Clinical and Laboratory Standards Institute (CLSI) Document M7-A7, Wayne, Pa., USA (2006). The compounds of Examples 5 and 12 were tested against wild-type E. coli A-1261 in the absence of alkaline phosphatase or esterase, in the presence of an alkaline phosphatase, and in the presence of an esterase. The corresponding antibacterial test results are given in Table 2 hereafter (MICs in mg/L).

[1] = alkaline phosphatase 2 i.U./mL, read-out: MIC for E. coli A-1261 In the presence of an alkaline phosphatase (2 i.U./mL)
[2] = esterase 10 i.U./mL, read-out: MIC for E. coli A-1261 In the presence of an esterase (10 i.U./mL)
[3] = no alkaline phosphatase or esterase, read-out: MIC for E. coli A-1261 In the absence of alkaline phosphatase or esterase

For `C[C@@](CCn1c(=O)sc2cc(C#CC#C[C@H]3C[C@]3(F)CO)ccc21)(C(=O)NO)S(C)(=O)=O` [Example 11, (2R)-4-(6-(((1R,2R)-2-fluoro-2-(hydroxymethyl)cyclopropyl)buta-1,3-diyn-1-yl)-2-oxobenzo[d]thiazol-3(2H)-yl)-N-hydroxy-2-methyl-2-(methylsulfonyl)butanamide], the MIC (P. aeruginosa ATCC27853) was 1 µg/mL (≈ 2.08 µM), the MIC (K. Pneumoniae A-651) was 0.25 µg/mL (≈ 0.52 µM) and the MIC (E. coli ATCC25922) was 0.063 µg/mL (≈ 0.131 µM).

With `C[C@@](CCn1c(=O)oc2cc(C#CC#C[C@H]3C[C@]3(F)CO)ccc21)(C(=O)NO)S(C)(=O)=O` [Example 6, (2R)-4-(6-(((1R,2R)-2-fluoro-2-(hydroxymethyl)cyclopropyl)buta-1,3-diyn-1-yl)-2-oxobenzo[d]oxazol-3(2H)-yl)-N-hydroxy-2-methyl-2-(methylsulfonyl)butanamide] the MIC (P. aeruginosa ATCC27853) was 0.5 µg/mL (≈ 1.08 µM), the MIC (K. Pneumoniae A-651) was 0.25 µg/mL (≈ 0.538 µM) and the MIC (E. coli ATCC25922) was 0.125 µg/mL (≈ 0.269 µM).

With `C[C@@](CCn1c(=O)oc2cc(C#Cc3ccc(CN4CCOCC4)cc3)ccc21)(C(=O)NO)S(C)(=O)=O` [Example 3] the “MIC for P. aeruginosa ATCC27853” value (P. aeruginosa ATCC27853) was over 8 µg/mL, the “MIC for K. Pneumoniae A-651” value (K. Pneumoniae A-651) was 2 µg/mL and the “MIC for E. coli ATCC25922” value (E. coli ATCC25922) was 2 µg/mL.

Molecule `CC(CCn1c(=O)oc2cc(C#CC#CC3(O)COC3)ccc21)(C(=O)NO)S(C)(=O)=O` (racemic) [RE2, (2RS)—N-hydroxy-4-(6-((3-hydroxyoxetan-3-yl)buta-1,3-diyn-1-yl)-2-oxobenzo[d]oxazol-3(2H)-yl)-2-methyl-2-(methylsulfonyl)butanamide] has an MIC (P. aeruginosa ATCC27853) of over 8 µg/mL, an MIC (K. Pneumoniae A-651) of 8 µg/mL (≈ 17.8 µM) and an MIC (E. coli ATCC25922) of 4 µg/mL (≈ 8.92 µM).

`C[C@@](CCn1c(=O)oc2cc(C#CC#CC3(N)CC3)ccc21)(C(=O)NO)S(C)(=O)=O` [Example 8, (2R)-4-(6-((1-aminocyclopropyl)buta-1,3-diyn-1-yl)-2-oxobenzo[d]oxazol-3(2H)-yl)-N-hydroxy-2-methyl-2-(methylsulfonyl)butanamide] gave an MIC (P. aeruginosa ATCC27853) of 1 µg/mL (≈ 2.32 µM), an MIC (K. Pneumoniae A-651) of 0.25 µg/mL (≈ 0.579 µM) and an MIC (E. coli ATCC25922) of 0.125 µg/mL (≈ 0.29 µM).

With `C[C@@](CCn1c(=O)oc2cc(C#CC#CCOC(=O)N3CC(O)C3)ccc21)(C(=O)NO)S(C)(=O)=O` [Example 7, (3R)-5-(3-(4-(hydroxyamino)-3-methyl-3-(methylsulfonyl)-4-oxobutyl)-2-oxo-2,3-dihydrobenzo[d]oxazol-6-yl)penta-2,4-diyn-1-yl 3-hydroxyazetidine-1-carboxylate] the MIC (P. aeruginosa ATCC27853) was 1 µg/mL (≈ 1.98 µM), the MIC (K. Pneumoniae A-651) was 1 µg/mL (≈ 1.98 µM) and the MIC (E. coli ATCC25922) was 0.5 µg/mL (≈ 0.989 µM).

Molecule `C[C@@](CCn1c(=O)oc2cc(C#CC#C[C@H]3C[C@@H]3COP(=O)(O)O)ccc21)(C(=O)NO)S(C)(=O)=O` [Example 12, ((1S,2S)-2-((3-((3R)-4-(hydroxyamino)-3-methyl-3-(methylsulfonyl)-4-oxobutyl)-2-oxo-2,3-dihydrobenzo[d]oxazol-6-yl)buta-1,3-diyn-1-yl)cyclopropyl)methyl dihydrogen phosphate] has an MIC (wild-type E. coli A-1261; [1]) of 0.125 µg/mL, an MIC (wild-type E. coli A-1261; [2]) of over 8 µg/mL and an MIC (wild-type E. coli A-1261; [3]) of over 8 µg/mL.

Molecule `COc1ccc(-c2ccc3c(c2)oc(=O)n3CCC(C)(C(=O)NO)S(C)(=O)=O)c(F)c1` (racemic) [RE1, (2RS)-4-(6-(2-fluoro-4-methoxyphenyl)-2-oxobenzo[d]oxazol-3(2H)-yl)-N-hydroxy-2-methyl-2-(methylsulfonyl)butanamide] has an MIC (P. aeruginosa ATCC27853) of over 8 µg/mL, an MIC (K. Pneumoniae A-651) of 1 µg/mL (≈ 2.21 µM) and an MIC (E. coli ATCC25922) of 2 µg/mL (≈ 4.42 µM).

For `C[C@@](CCn1c(=O)oc2cc(C#CC#C[C@H]3C[C@@H]3CO)ccc21)(C(=O)NO)S(C)(=O)=O` [Example 5, (2R)—N-hydroxy-4-(6-(((1S,2S)-2-(hydroxymethyl)cyclopropyl)buta-1,3-diyn-1-yl)-2-oxobenzo[d]oxazol-3 (2H)-yl)-2-methyl-2-(methylsulfonyl)butanamide], the MIC (wild-type E. coli A-1261; [1]) was 0.063 µg/mL, the MIC (wild-type E. coli A-1261; [2]) was 0.063 µg/mL and the MIC (wild-type E. coli A-1261; [3]) was 0.063 µg/mL (≈ 0.141 µM). For the same molecule, the MIC (P. aeruginosa ATCC27853) was 0.5 µg/mL (≈ 1.12 µM), the MIC (K. Pneumoniae A-651) was 0.125 µg/mL (≈ 0.28 µM) and the MIC (E. coli ATCC25922) was 0.063 µg/mL (≈ 0.141 µM).

With `CN1CC(C#CC#Cc2ccc3c(c2)oc(=O)n3CC[C@](C)(C(=O)NO)S(C)(=O)=O)C1` [Example 9, (2R)—N-hydroxy-2-methyl-4-(6-((1-methylazetidin-3-yl)buta-1,3-diyn-1-yl)-2-oxobenzo[d]oxazol-3(2H)-yl)-2-(methylsulfonyl)butanamide] the MIC (P. aeruginosa ATCC27853) was 1 µg/mL (≈ 2.24 µM), the MIC (K. Pneumoniae A-651) was 0.5 µg/mL (≈ 1.12 µM) and the MIC (E. coli ATCC25922) was 1 µg/mL (≈ 2.24 µM).

With `C[C@@](CCn1c(=O)oc2cc(C#Cc3ccc(CO)cc3)ccc21)(C(=O)NO)S(C)(=O)=O` [Example 1] the “MIC for P. aeruginosa ATCC27853” value (P. aeruginosa ATCC27853) was 4 µg/mL, the “MIC for K. Pneumoniae A-651” value (K. Pneumoniae A-651) was 0.5 µg/mL and the “MIC for E. coli ATCC25922” value (E. coli ATCC25922) was 0.25 µg/mL.

Work on `CNC1(C#CC#Cc2ccc3c(c2)oc(=O)n3CC[C@](C)(C(=O)NO)S(C)(=O)=O)CC1` [Example 4, (2R)—N-hydroxy-2-methyl-4-(6-((1-(methylamino)cyclopropyl)buta-1,3-diyn-1-yl)-2-oxobenzo[d]oxazol-3(2H)-yl)-2-(methylsulfonyl)butanamide] yielded an MIC (P. aeruginosa ATCC27853) of 1 µg/mL (≈ 2.24 µM), an MIC (K. Pneumoniae A-651) of 0.25 µg/mL (≈ 0.561 µM) and an MIC (E. coli ATCC25922) of 0.25 µg/mL (≈ 0.561 µM).

`C[C@@](CCn1c(=O)oc2cc(C#CC#CC3(CO)CC3)ccc21)(C(=O)NO)S(C)(=O)=O` [Example 2, (2R)—N-hydroxy-4-(6-((1-(hydroxymethyl)cyclopropyl)buta4,3-diyn-1-yl)-2-oxobenzo[d]oxazol-3(2H)-yl)-2-methyl-2-(methylsulfonyl)butanamide] was tested, and the “MIC for P. aeruginosa ATCC27853” value (P. aeruginosa ATCC27853) was 1 µg/mL, the “MIC for K. Pneumoniae A-651” value (K. Pneumoniae A-651) was 1 µg/mL and the “MIC for E. coli ATCC25922” value (E. coli ATCC25922) was 0.25 µg/mL.

`C[C@@](CCn1c(=O)sc2cc(C#Cc3ccc(CO)cc3)ccc21)(C(=O)NO)S(C)(=O)=O` [Example 13] was tested, and the “MIC for P. aeruginosa ATCC27853” value (P. aeruginosa ATCC27853) was 8 µg/mL, the “MIC for K. Pneumoniae A-651” value (K. Pneumoniae A-651) was 0.5 µg/mL and the “MIC for E. coli ATCC25922” value (E. coli ATCC25922) was 0.125 µg/mL.

`CN1CC(C#CC#Cc2ccc3c(c2)sc(=O)n3CC[C@](C)(C(=O)NO)S(C)(=O)=O)C1` [Example 10, (2R)—N-hydroxy-2-methyl-4-(6-((1-methylazetidin-3-yl)buta-1,3-diyn-1-yl)-2-oxobenzo[d]thiazol-3(2H)-yl)-2-(methylsulfonyl)butanamide] was tested, and the MIC (P. aeruginosa ATCC27853) was 2 µg/mL (≈ 4.33 µM), the MIC (K. Pneumoniae A-651) was 1 µg/mL (≈ 2.17 µM) and the MIC (E. coli ATCC25922) was 0.5 µg/mL (≈ 1.08 µM).
